# Measured values reported in US10954201B2, “Two-electron donating phenothiazines and use thereof” (University of Kentucky Research Foundation, priority 2016, dated 2021).
# Read-outs that look alike come from different tables or passages of the source.
# Experiments:
# [1] = Solubility in electrolyte formulations; type: physicochemical; conditions: for solubility compared to the N-ethyl derivative: while retaining stable redox chemistry
# Source text: Additionally, in some embodiments, the N-substituted phenothiazine compounds described herein provide increased solubility in electrolyte formulations as compared to existing compounds, such as 2,5-di-tert-butyl-1,4-bis(2-methoxyethoxy)benzene (DBBB). In one embodiment, the glyme substituents provide increased solubility in electrolyte formulations as compared to other derivatives. […] In another embodiment, this solubility in organic solvents permits the use of renewable earth-abundant elements.
# In some embodiments, the N-substituted phenothiazine compounds described herein provide a multi-electron donor including high stability and solubility in catholyte formulations. In another embodiment, the catholyte material provides a multi-electron donor that retains high chemical stability when charged. […] For example, when formulated at its solubility limit, diglyme-dimethoxyphenothiazine may provide approximately 5 times the volumetric energy of DBBB, which has an energy density of 10 Ah/L when formulated as a catholyte, and is limited by its solubility (0.4M) and redox chemistry, acting as a single electron donor.
# [2] = Cyclic voltammetry, 10 mM analyte in 0.5M LiPF6 in PC (FIG. 1, Table 1); type: physicochemical; conditions: scan rate 100 mV/s
# Description: FIG. 1 is a graph showing cyclic voltammograms of DMeOEPT, DMeOMEPT, and DMeOMEEPT, performed with 10 mM analyte in 0.5M LiPF6 in PC at a scan rate of 100 mV/s.
# [3] = Oxidation potentials vs. ferrocenium/ferrocene in 0.5M TEATFSI/acetonitrile; type: physicochemical
# Source text: With regard to Compound IV, oxidation potentials are 0.035 V and 0.625 V vs. ferrocenium/ferrocene in 0.5M TEATFSI/acetonitrile.
# [4] = DBBB formulated as a catholyte; cited from earlier work
Compound,solubility [1],melting point [°C],1st Eox vs. Li (half-wave first oxidation potential) [2] [V],2nd Eox vs. Li (half-wave second oxidation potential) [2] [V],oxidation potential (first) vs. ferrocenium/ferrocene [3] [V],oxidation potential (second) vs. ferrocenium/ferrocene [3] [V],solubility compared to the N-ethyl derivative [1],solubility [4] [mM]
CCN1c2ccc(OCCOCCOC)cc2Sc2cc(OCCOCCOC)ccc21 [Compound IV],,,,,0.035,0.625,,
"COCCOc1cc(C(C)(C)C)c(OCCOC)cc1C(C)(C)C [DBBB, 2,5-di-tert-butyl-1,4-bis(2-methoxyethoxy)benzene]",,,,,,,,400
"COCCN1c2ccc(OC)cc2Sc2cc(OC)ccc21 [II, 3,7-dimethoxy-N-methoxyethyl-phenothiazine]",,108 to 110,3.42,3.96,,,higher solubility,

# Continued, in another order:
solubility [1],melting point [°C],1st Eox vs. Li (half-wave first oxidation potential) [2] [V],2nd Eox vs. Li (half-wave second oxidation potential) [2] [V],oxidation potential (first) vs. ferrocenium/ferrocene [3] [V],oxidation potential (second) vs. ferrocenium/ferrocene [3] [V],solubility compared to the N-ethyl derivative [1],Compound,solubility [4] [mM]
about 100 mM,115 to 116,3.38,3.94,,,,"CCN1c2ccc(OC)cc2Sc2cc(OC)ccc21 [Compound I, 3,7-dimethoxy-N-ethyl-phenothiazine]",
,,3.41,3.98,,,higher solubility,"COCCOCCN1c2ccc(OC)cc2Sc2cc(OC)ccc21 [III, 3,7-dimethoxy-N-((2-methoxy)ethoxy)ethyl-phenothiazine]",
